We go through ten compounds from US20220380829A1, “Method of Diagonosizing Pathogens and their Antimicrobial Susceptibility” (HANGZHOU DIAN MEDICAL LABORATORY CO., LTD., priority 2019, published 2022).

One assay relates to Streptococcus pneumoniae. Kind of assay: VITEK2 Compact AST (AST-GP68 cards) with penicillin disc diffusion, gold standard culture-based AST. The class given is cell-based. On the procedure:
Step 1. Drug susceptibility verification: The Streptococcus pneumoniae isolates were tested for drug susceptibility using bioMérieux Vitek2 Compact System and AST-GP68 cards, and specifically, the susceptibility of penicillin was double checked by disc diffusion method (OXOID, CT0043B), and the combined results were used as the gold standard (culture-based AST).
Step 1. Sample collection and drug susceptibility verification: 48 clinical Streptococcus pneumoniae isolates were collected from 18 hospitals across china in a period between May 2017 and October 2019. All isolates were tested for drug susceptibility using bioMérieux Vitek2 Compact System and AST-GP68 card, and specifically, the susceptibility of penicillin was double checked by disc diffusion method (OXOID, CT0043B), and the combined results were used as the gold standard (culture-based AST).
For orientation: A growth-free zone around the sample is the usual read-out of agar diffusion tests.

The next assay relates to Enterococcus faecalis. Put plainly: VITEK2 Compact AST (AST-P639 cards), gold standard culture-based AST. Type of assay: cell-based.
Where [1] appears, read: Resistance profile classification A.
The mark [2] stands for this setting: Resistance profile classification B.
[3] abbreviates: Resistance profile classification C.
[4] abbreviates: Resistance profile classification D.
The mark [5] stands for this setting: Resistance profile classification G.
[6] abbreviates: Resistance profile classification H.
[7] abbreviates: Resistance profile classification I.
Setting [8] is: Resistance profile classification J.
[9] abbreviates: Resistance profile classification S.
Where [10] appears, read: Resistance profile classification F (first line so labelled, r12).
The mark [11] stands for this setting: Resistance profile classification F (second line so labelled, r13).
[12] abbreviates: Resistance profile classification K.
Where [13] appears, read: Resistance profile classification L.
[14] abbreviates: Resistance profile classification M.
Also: key: ‘R’ indicates drug-resistant; ‘S’ indicates drug-susceptible.

As to `CC1(C)S[C@@H]2[C@H](NC(=O)[C@H](N)c3ccccc3)C(=O)N2[C@H]1C(=O)O` [ampicillin], the “Susceptibility of Streptococcus pneumoniae to 14 antibacterial drugs” value in the assay on Streptococcus pneumoniae (setting [1]), with Streptococcus pneumoniae (setting [2]), in the assay on Streptococcus pneumoniae (setting [3]), in the assay with Streptococcus pneumoniae (setting [4]), in the assay on Streptococcus pneumoniae (Resistance profile classification E) and with Streptococcus pneumoniae (Resistance profile classification F) was “R” in each case. For the same compound, the “Susceptibility of Streptococcus pneumoniae to 14 antibacterial drugs” value in the assay on Streptococcus pneumoniae (setting [5]), with Streptococcus pneumoniae (setting [6]), with Streptococcus pneumoniae (setting [7]), in the assay on Streptococcus pneumoniae (setting [8]) and in the assay on Streptococcus pneumoniae (setting [9]) was “S” throughout. The “Susceptibility of Emterococcus faecalis to 11 antibacterial drugs” value (“Susceptibility of Emterococcus faecalis” for short) in the assay with Enterococcus faecalis (setting [1]), in the assay on Enterococcus faecalis (setting [2]), with Enterococcus faecalis (setting [3]), in the assay with Enterococcus faecalis (setting [4]), with Enterococcus faecalis (setting [10]) and in the assay on Enterococcus faecalis (setting [11]) was “R” throughout. Further, the “Susceptibility of Emterococcus faecalis” value with Enterococcus faecalis (setting [5]), in the assay on Enterococcus faecalis (setting [6]), in the assay on Enterococcus faecalis (setting [7]), with Enterococcus faecalis (setting [8]), in the assay with Enterococcus faecalis (setting [12]) and in the assay on Enterococcus faecalis (setting [13]) was “S” each time. For the same compound, the “Susceptibility of Emterococcus faecalis” value in the assay with Enterococcus faecalis (setting [14]) and in the assay with Enterococcus faecalis (setting [9]) was “S” throughout.

For the compound `CO/N=C(\C(=O)N[C@@H]1C(=O)N2C(C(=O)[O-])=C(C[N+]3(C)CCCC3)CS[C@H]12)c1csc(N)n1` [cefepime], in the assay with Streptococcus pneumoniae, the “Blind 1 by AST” value was “S” and the “blind 2 by AST” value is “R”.

As for `CO/N=C(\C(=O)N[C@@H]1C(=O)N2C(C(=O)O)=C(COC(C)=O)CS[C@H]12)c1csc(N)n1` [cefotaxime], in the assay on Streptococcus pneumoniae, the “Blind 1 by AST” value is listed as “S” and the “blind 2 by AST” value is reported as “R”.

On to `CO/N=C(\C(=O)N[C@@H]1C(=O)N2C(C(=O)O)=C(CSc3nc(=O)c(=O)[nH]n3C)CS[C@H]12)c1csc(N)n1` [ceftriaxone], for which, in the assay with Streptococcus pneumoniae, the “Blind 1 by AST” value was “S” and the “blind 2 by AST” value was “R”.

Regarding `CCCCCCCCCC(=O)N[C@@H](Cc1c[nH]c2ccccc12)C(=O)N[C@H](CC(N)=O)C(=O)N[C@@H](CC(=O)O)C(=O)N[C@@H]1C(=O)NCC(=O)N[C@@H](CCCN)C(=O)N[C@@H](CC(=O)O)C(=O)N[C@H](C)C(=O)N[C@@H](CC(=O)O)C(=O)NCC(=O)N[C@H](CO)C(=O)N[C@@H]([C@H](C)CC(=O)O)C(=O)N[C@@H](CC(=O)c2ccccc2N)C(=O)O[C@@H]1C` [daptomycin], the “Susceptibility of Emterococcus faecalis” value with Enterococcus faecalis (setting [1]), in the assay on Enterococcus faecalis (setting [2]), in the assay with Enterococcus faecalis (setting [3]), in the assay with Enterococcus faecalis (setting [4]), in the assay with Enterococcus faecalis (setting [10]) and with Enterococcus faecalis (setting [11]) was “S” throughout. Further, the “Susceptibility of Emterococcus faecalis” value with Enterococcus faecalis (setting [5]), in the assay on Enterococcus faecalis (setting [6]), in the assay with Enterococcus faecalis (setting [7]), in the assay with Enterococcus faecalis (setting [8]), in the assay with Enterococcus faecalis (setting [12]) and in the assay on Enterococcus faecalis (setting [13]) was “S” each time. The “Susceptibility of Emterococcus faecalis” value in the assay on Enterococcus faecalis (setting [14]) and in the assay with Enterococcus faecalis (setting [9]) was “S” throughout.

With `C[C@@H](O)[C@H]1C(=O)N2C(C(=O)O)=C(S[C@@H]3CN[C@H](C(=O)Nc4cccc(C(=O)O)c4)C3)[C@H](C)[C@H]12` [ertapenem], in the assay on Streptococcus pneumoniae, the “Blind 1 by AST” value was “S” and the “blind 2 by AST” value was “S”.

Turning to `C[C@@H](O)[C@H]1C(=O)N2C(C(=O)O)=C(S[C@@H]3CN[C@H](C(=O)N(C)C)C3)[C@H](C)[C@H]12` [meropenem], in the assay with Streptococcus pneumoniae, the “Blind 1 by AST” value is given as “S” and the “blind 2 by AST” value is reported as “S”.

Turning to `COc1c(N2C[C@@H]3CCCN[C@@H]3C2)c(F)cc2c(=O)c(C(=O)O)cn(C3CC3)c12` [moxifloxacin], in the assay with Streptococcus pneumoniae, the “Blind 1 by AST” value is “S” and the “blind 2 by AST” value is “S”.

As to `CN(C)c1cc(NC(=O)CNC(C)(C)C)c(O)c2c1C[C@H]1C[C@H]3[C@H](N(C)C)C(O)=C(C(N)=O)C(=O)[C@@]3(O)C(O)=C1C2=O` [tigecycline], the “Susceptibility of Emterococcus faecalis” value with Enterococcus faecalis (setting [1]), with Enterococcus faecalis (setting [2]), in the assay on Enterococcus faecalis (setting [3]), in the assay on Enterococcus faecalis (setting [4]), in the assay on Enterococcus faecalis (setting [10]) and in the assay on Enterococcus faecalis (setting [11]) was “S” in each case. Moreover, the “Susceptibility of Emterococcus faecalis” value in the assay on Enterococcus faecalis (setting [5]), in the assay on Enterococcus faecalis (setting [6]), in the assay on Enterococcus faecalis (setting [7]), with Enterococcus faecalis (setting [8]), in the assay with Enterococcus faecalis (setting [12]) and in the assay on Enterococcus faecalis (setting [13]) was “S” in each case. In the assay on Enterococcus faecalis (setting [9]), the “Susceptibility of Emterococcus faecalis” value is “S”.

Consider high-level gentamicin [HLAR], for which the “Susceptibility of Emterococcus faecalis” value in the assay on Enterococcus faecalis (setting [1]) is “R”; in the assay on Enterococcus faecalis (setting [2]), “R”; in the assay on Enterococcus faecalis (setting [3]), “S”; in the assay on Enterococcus faecalis (setting [4]) it was “S”; in the assay on Enterococcus faecalis (setting [10]) it was “S”; in the assay on Enterococcus faecalis (setting [11]), “S”. For the same compound, the “Susceptibility of Emterococcus faecalis” value in the assay on Enterococcus faecalis (setting [5]) was “R”; in the assay on Enterococcus faecalis (setting [6]), “R”; in the assay on Enterococcus faecalis (setting [7]), “R”; with Enterococcus faecalis (setting [8]), “S”; in the assay with Enterococcus faecalis (setting [12]), “S”; in the assay with Enterococcus faecalis (setting [13]), “S”. Moreover, the “Susceptibility of Emterococcus faecalis” value with Enterococcus faecalis (setting [14]) and in the assay with Enterococcus faecalis (setting [9]) was “S” throughout.
